From patent US9745280B2, “Compound or pharmaceutically acceptable salt thereof, and pharmaceutical composition containing same as active ingredient” (SNU R&DB FOUNDATION, priority 2012, dated 2017)

Assays:
HUVECs = assay: HUVEC tube formation with conditioned medium from treated H1299 cells; format: cell-based; settings: CM from H1299 cells treated under normoxic or hypoxic conditions
Experimental: H1299 cells were treated with example 28 compound (“SH” in FIG. 13) or deguelin for 1 d and then further incubated under normoxic or hypoxic conditions for 4 h. After incubation, the drug-containing medium was discarded and fresh serum-free medium was added to cell and further incubated for 24 h. After incubation, the conditioned medium (CM) was collected.
Briefly, the HUVECs were diluted in complete medium and seeded onto CellBIND surface 96-well plates (Corning). The cells were treated with the CM. The morphological changes of the HUVECs were photographed and scored.

[1] = test system: lung cancer cells with or without anticancer drug resistance; assay: Anchorage-independent (soft agar) colony formation assay; format: cell-based; settings: 2 weeks
Excerpt: (§1) H1299, H460, H292, and BEAS-2B cells were purchased from the ATCC. The other NSCLC cells were kindly provided by Dr. John V. Heymach (MD Anderson Cancer Center, Houston, Tex.). HUVECs were purchased from Invitrogen. Human bronchial epithelial (HBE) cells were kindly provided by Dr. John Minna (The University of Texas Southwestern Medical Center, Dallas, Tex.). Human retinal pigment epithelial (RPE) cells were kindly provided by Dr. Jeong Hun Kim (College of Medicine, Seoul National University, Seoul, Republic of Korea). HT-22 cells were provided by Dr. Dong Gyu Jo (College of Pharmacy, Sungkyunkwan University, Suwon, Republic of Korea). Cell lines were authenticated and validated at the Korean Cell Line Bank using AmplFLSTR identifier PCR Amplification Kit (Applied Biosystems; cat. No. 4322288) in 2013. Cells passed for fewer than 6 months after receipt or resuscitation of validated cells were used in this study.
HT-22 and RPE cells were cultured in DMEM supplemented with 10% fetal bovine serum (FBS) and antibiotics. […]
For the anchorage-independent colony formation assay, the cells were mixed with sterile 1% agar solution (final concentration of 0.4%) and then poured onto 1% base agar in 24-well plates. […] After incubation, the colonies were stained with MTT solution and then photographed and counted.

[2] = test system: hippocampal cells (HT-22); format: cell-based
Excerpt: (§2) We examined toxicity of example 28 compound at the cellular levels by testing the effects of example 28 compound on the viability of several normal cells, including human normal lung epithelial cells (HBE and BEAS-2B; FIG. 14), hippocampal cells (HT-22; FIG. 15), retinal pigment epithelial cells (FIG. 16), and vascular endothelial cells (HUVEC; FIG. 17).

[3] = test system: vascular endothelial cells (HUVEC); format: cell-based
Excerpt: as §2

[4] = test system: human normal lung epithelial cells (HBE and BEAS-2B); format: cell-based
Excerpt: as §2

[5] = test system: H1299 NSCLC (non-small cell lung cancer) cells; assay: Cancer cell growth inhibition (MTS); format: cell-based; settings: Homo sapiens
Experimental: To investigate the inhibitory effect of the compounds of Examples of the present invention on cancer cell growth, the following experiment was performed. Particularly, H1299 NSCLC (non-small cell lung cancer) cells were distributed in a 96-well plate at the density of 5×10^3 cells/well, followed by culture in a 37° C., 5% CO2 incubator for 24 hours. The compound of each example was dissolved in DMSO (10 nM, 100 nM, 1 μM, 10 μM), which was treated to each well. 48 hours later, cell growth was measured by using MTS reagent (3-(4,5-dimethylthiazole-2-yl)-5-(3-carboxymethoxyphenyl)-2-(4-sulfophenyl)-2H-tetrazolium). The experiment was performed in triplicate and the standard error of the analysis result was corrected.

[6] = test system: human umbilical vein endothelial cells (HUVECs); assay: Vascular endothelial cell proliferation, [3H]-thymidine incorporation, conditioned media of hypoxic HCT116; format: cell-based; settings: conditioned media of HCT116 treated at 1˜100 nM under hypoxia; HUVECs 18 hours
Experimental: (§3) First, HCT116, the human colorectal cancer cell line, was cultured in a hypoxic chamber (1% O2) as the in vitro hypoxic model. The cells were treated with deguelin, compound 69 (Example 33) and compound 54 (Example 28) at the concentrations of 1˜100 nM, followed by culture for 8 hours. Next, the culture fluid was collected and proceeded to centrifugation at 4° C. for 10 minutes (6,000×g). Cell culture fluid was obtained from the supernatant (conditioned media (CM)). The obtained cell culture fluid was treated to human umbilical vein endothelial cells (HUVECs) which were cultured separately. Then changes of angiogenesis were investigated by the following experiments.
The cell culture fluid prepared in the above preparation stage was treated to umbilical vein endothelial cells (HUVECs) for 18 hours. Cell proliferation was confirmed by [^3H]-thymidine incorporation assay.

[7] = test system: lung cancer cells with or without anticancer drug resistance; assay: Anchorage-dependent colony formation assay; format: cell-based; settings: increasing concentrations, 2 weeks
Excerpt: as §1
HT-22 and RPE cells were cultured in DMEM supplemented with 10% fetal bovine serum (FBS) and antibiotics. Other cancer cells were cultured in RPMI 1640 medium supplemented with 10% FBS and antibiotics. […]
For the anchorage-dependent colony formation assay, cells were seeded onto 6-well plates at a density of 300 cells/well and then treated with increasing concentrations of example 28 compound (“SH” in FIG. 11) for 2 weeks. […] The colonies were photographed and counted.

[8] = test system: retinal pigment epithelial cells; format: cell-based, human
Excerpt: as §2

[9] = Body weight of treated rats; format: in vivo
HIF-1α = HIF-1α inhibitory activity, hypoxia-response element-luciferase in HRE-A549 cells; format: cell-based; settings: HRE-A549 cells, hypoxia-chamber 24 h, luciferase activity
Experimental: HRE-A549 cells stably transfected with hypoxia-response element-luciferase construct were incubated in Dulbecco's modified Eagle's medium. Following overnight serum deprivation, the cells were treated with or without Deguelin or example compounds. After 1 h incubation, the cells were incubated in hypoxia-chamber for 24 h at 37° C. Luciferase activity was measured by adding luciferase assay reagent (Promega, Madison, Wis.).

[10] = test system: human bronchial epithelial cells (HBEC-1 and BEAS-2B); assay: Cytotoxicity to normal cells (MTT); format: cell-based; settings: 3 days
Experimental: To investigate the cytotoxicity of the control deguelin, the compound 69 (Example 33), and the compound 54 (Example 28) to the normal cells, it was examined how these compounds affect the proliferation of human bronchial epithelial cells (HBEC-1 and BEAS-2B).
Particularly, HBEC-1 and BEAS-2B cells were seeded on a 96-well culture plate (5,000 cells/well), followed by culture for 24 hours. The plate was treated with 0.1% DMSO (comparative control (CT)), 1 μM of deguelin (control), or […] of the compound 69 (Example 33) and the compound 54 (Example 28) (experimental group), followed by further culture for 3 days. Cytotoxicity was evaluated by MTT assay.

[11] = test system: human umbilical vein endothelial cells (HUVECs); assay: Vascular endothelial cell migration, trans-well, conditioned media of hypoxic HCT116; format: cell-based; settings: cell culture fluid treated at 100 nM; 4 hours
Experimental: as §3
The cell culture fluid obtained in the above preparation stage was loaded in the lower chamber of trans-well plate (6.5 mm diameter filter) and umbilical vein endothelial cells (HUVECs) were plated carefully in the upper chamber, followed by culture at 37° C. for 4 hours. The cells migrated down the filter were confirmed by H&E staining.

[12] = test system: human umbilical vein endothelial cells (HUVECs); assay: Vascular endothelial cell tube formation, conditioned media of hypoxic HCT116; format: cell-based; settings: conditioned media of treated HCT116; 30 hours
Experimental: as §3
Umbilical vein endothelial cells (HUVECs) were treated with the cell culture fluid obtained in the above preparation stage. 30 hours later, tube formation was observed. As a result, tube formation was induced by the control deguelin and the compounds of the present invention.

[13] = previous study; decreased tyrosine hydroxylase immunoreactivity; cited from earlier work

Compound: COc1ccc(CC(=O)c2ccc3c(c2OC)C=CC(C)(C)O3)cc1OC [Example 28, 2-(3,4-Dimethoxyphenyl)-1-(5-methoxy-2,2-dimethyl-2H-chromen-6-yl)ethanone]
- tube formation of HUVECs (HUVECs): formed significantly fewer tubes
- anchorage-independent colony formation [1]: remarkably superior anticancer effect
- cytotoxicity compared with deguelin [2]: significantly reduced cytotoxicity
- cytotoxicity compared with deguelin [3]: significantly reduced cytotoxicity
- cytotoxicity compared with deguelin [4]: significantly reduced cytotoxicity
- IC50 ([5]; NCI-H1299, 48 hours, MTS reagent): 140 nM
- proliferation of vascular endothelial cells [6]: inhibited the proliferation of vascular endothelial cells dose-dependently
- anchorage-dependent colony formation [7]: remarkably superior anticancer effect
- cytotoxicity compared with deguelin [8]: significantly reduced cytotoxicity
- body weight of rats ([9]; rat, in vivo): minimal influence on the body weight of rats
- IC50 (HIF-1α): 2150 nM

Compound: COc1ccc([C@H](C)C(=O)c2ccc3c(c2OC)C=CC(C)(C)O3)cc1OC [compound 69, (S)-2-(3,4-Dimethoxyphenyl)-1-(5-methoxy-2,2-dimethyl-2H-chromen-6-yl)propan-1-one]
- cell survival rate ([10]; human, 1 μM): approximately 80%
- migration of vascular endothelial cells [11]: showed the inhibitory effect on the migration of vascular endothelial cells
- proliferation of vascular endothelial cells [6]: inhibited the proliferation of vascular endothelial cells dose-dependently
- inhibitory effect on tube formation [12]: greater than that of the control deguelin

Compound: COc1ccc(CC(=O)c2ccc3c(c2OC)C=CC(C)(C)O3)cc1OC [compound 54, 2-(3,4-Dimethoxyphenyl)-1-(5-methoxy-2,2-dimethyl-2H-chromen-6-yl)ethanone]
- cell survival rate ([10]; human, 1 μM): approximately 80%
- IC50 ([5]; NCI-H1299, value repeated in text): 140 nM
- migration of vascular endothelial cells [11]: showed the inhibitory effect on the migration of vascular endothelial cells
- inhibitory effect on tube formation [12]: greater than that of the control deguelin

Compound: COc1cc2c(cc1OC)[C@@H]1C(=O)c3ccc4c(c3O[C@@H]1CO2)C=CC(C)(C)O4 [deguelin, Deguelin, reference compound]
- cell survival rate ([10]; HBEC-1 and BEAS-2B, 1 μM of deguelin, MTT): approximately 60%
- toxicity in the rat brain [13]: caused parkinsonism-like syndrome
- body weight of rats ([9]; compared with control): significantly reduced
